Measured values reported in patent publication US8604068B2, “Insecticidal compositions of 2-cyanobenzene sulfonamide compounds and isomeric forms thereof having improved effect” (Bayer CropScience AG, priority 2007, dated 2013).

Key:
Type in all cases: in vivo
[1] = system: green peach aphid (Myzus persicae); experiment: Myzus persicae test (MYZUPE), ammonium salts in combination with penetration enhancers (Example C); conditions: for Kill rate/% after 6 days, +AS (1000 ppm) / Kill rate/% after 6 days, +RME (1000 ppm) / Kill rate/% after 6 days, +RME + AS (each 1000 ppm) / Kill rate/% after 6 days, a.i.: Table C1; for Kill rate/% after 6 days, a.i. / Kill rate/% after 7 days, a.i.: no additive; for Kill rate/% after 7 days, +AS (1000 ppm) / Kill rate/% after 7 days, +RME (1000 ppm) / Kill rate/% after 7 days, +RME + AS (each 1000 ppm) / Kill rate/% after 7 days, a.i.: Table C2, emulsifier 1 part; for Kill rate/% after 7 days, +AS (1000 ppm): active substance 60 g/ha + ammonium sulfate 1000 ppm; for Kill rate/% after 7 days, +RME (1000 ppm): active substance 60 g/ha + rape oil methyl ester 1000 ppm; for Kill rate/% after 7 days, +RME + AS (each 1000 ppm): active substance 60 g/ha + rape oil methyl ester and ammonium sulfate; for Kill rate/% after 7 days, a.i.: active substance 60 g/ha
Method: (§1) Myzus persicae—Test (MYZUPE)
(§2) For the preparation of a suitable active substance preparation, 1 part by weight of active substance is mixed with the stated quantities of solvent and emulsifier and the concentrate is diluted to the desired concentration with emulsifier-containing water. When addition of ammonium salts, penetration enhancers or ammonium salts and penetration enhancers is necessary, these are in each case pipetted into the finished preparation solution in a concentration of 1000 ppm after dilution.
Paprika plants (Capsicum annuum) which are severely infested with the green peach aphid (Myzus persicae) are treated by spraying with the active substance preparation in the desired concentration.
(§3) After the desired time, the kill rate in % is determined. Here 100% means that all the animals were killed; 0% means that no animals were killed.

[2] = system: cotton aphid (Aphis gossypii); experiment: Aphis gossypii test (APHIGO), ammonium salts in combination with penetration enhancers (Example D); conditions: for Kill rate/% after 6 days, +AS (1000 ppm) / Kill rate/% after 6 days, +RME (1000 ppm) / Kill rate/% after 6 days, +RME + AS (each 1000 ppm) / Kill rate/% after 6 days, a.i.: Table D1; for Kill rate/% after 6 days, a.i. / Kill rate/% after 7 days, a.i.: no additive; for Kill rate/% after 7 days, +AS (1000 ppm) / Kill rate/% after 7 days, +RME (1000 ppm) / Kill rate/% after 7 days, +RME + AS (each 1000 ppm) / Kill rate/% after 7 days, a.i.: Table D2, emulsifier 1 part; for Kill rate/% after 7 days, +AS (1000 ppm): active substance 2.4 g/ha + ammonium sulfate 1000 ppm; for Kill rate/% after 7 days, +RME (1000 ppm): active substance 2.4 g/ha + rape oil methyl ester 1000 ppm; for Kill rate/% after 7 days, +RME + AS (each 1000 ppm): active substance 2.4 g/ha + rape oil methyl ester and ammonium sulfate; for Kill rate/% after 7 days, a.i.: active substance 2.4 g/ha
Method: (§4) Aphis gossypii-Test (APHIGO)
as §2
(§5) Cotton leaves (Gossypium hirsutum) which are severely infested with the cotton aphid (Aphis gossypii) are sprayed with an active substance preparation with the desired concentration.
(§6) After the desired time, the kill rate in % is determined. Here 100% means that all the aphids were killed; 0% means that no aphids were killed.

[3] = system: cotton aphid (Aphis gossypii); experiment: Aphis gossypii test (APHIGO), activity increase due to ammonium salts (Example B); conditions: sprayed cotton leaves; for Kill rate/% after 6 days, a.i.: no additive
Method: as §4
as §2, with “ammonium” for “ammonium salts, penetration enhancers or ammonium”, “salts” for “salts and penetration enhancers”
as §5, §6

[4] = system: common spider mite (Tetranychus urticae); experiment: Tetranychus test (OP-resistant), activity increase due to ammonium salts (Example E); conditions: sprayed bean plants; for Kill rate/% after 6 days, +AS (1000 ppm): active substance 20 ppm + ammonium sulfate 1000 ppm; for Kill rate/% after 6 days, a.i.: active substance 20 ppm, no additive
Method: (§7) Tetranychus-Test (OP-Resistant)
as §2, with “ammonium” for “ammonium salts, penetration enhancers or ammonium”, “salts” for “salts and penetration enhancers”
(§8) Bean plants (Phaseolus vulgaris) which are severely infested by all stages of the common spider mite (Tetranychus urticae) are treated by spraying with the active substance preparation in the desired concentration.
(§9) After the desired time, the kill rate in % is determined. here 100% means that all the spider mites were killed; 0% means that no spider mites were killed.

[5] = system: green peach aphid (Myzus persicae); experiment: Myzus persicae test (MYZUPE), activity increase due to ammonium salts (Example A); conditions: sprayed paprika plants; for Kill rate/% after 6 days, a.i.: no additive
Method: as §1
as §2, with “ammonium” for “ammonium salts, penetration enhancers or ammonium”, “salts” for “salts and penetration enhancers”
Paprika plants (Capsicum annuum) which are severely infested by the green peach aphid (Myzus persicae) are treated by spraying with the active substance preparation in the desired concentration.
as §3

[6] = system: common spider mite (Tetranychus urticae); experiment: Tetranychus test (OP-resistant), ammonium salts in combination with penetration enhancers (Example F); conditions: for Kill rate/% after 6 days, a.i.: no additive
Method: as §7, §2, §8, §9

[7] = active substance 4 ppm + ammonium sulfate 1000 ppm
[8] = active substance 4 ppm + rape oil methyl ester 1000 ppm
[9] = active substance 4 ppm + rape oil methyl ester and ammonium sulfate
[10] = active substance 20 ppm + ammonium sulfate 1000 ppm
[11] = active substance 20 ppm + rape oil methyl ester 1000 ppm
[12] = active substance 20 ppm + rape oil methyl ester and ammonium sulfate
[13] = active substance 0.8 ppm + ammonium sulfate 1000 ppm
[14] = active substance 0.8 ppm + rape oil methyl ester 1000 ppm
[15] = active substance 0.8 ppm + rape oil methyl ester and ammonium sulfate

## C=CCNS(=O)(=O)c1cccc(OC)c1C#N [Example 44]
[1]; [7]
  Kill rate/% after 6 days, +AS (1000 ppm): 15%
[1]; [8]
  Kill rate/% after 6 days, +RME (1000 ppm): 20%
[1]; [9]
  Kill rate/% after 6 days, +RME + AS (each 1000 ppm): 30%
[1]; active substance 4 ppm
  Kill rate/% after 6 days, a.i.: 10%
[1]; [10]
  Kill rate/% after 6 days, +AS (1000 ppm): 70%
[1]; [11]
  Kill rate/% after 6 days, +RME (1000 ppm): 85%
[1]; [12]
  Kill rate/% after 6 days, +RME + AS (each 1000 ppm): 98%
[1]; active substance 20 ppm
  Kill rate/% after 6 days, a.i.: 85%
[2]; [7]
  Kill rate/% after 6 days, +AS (1000 ppm): 25%
[2]; [8]
  Kill rate/% after 6 days, +RME (1000 ppm): 45%
[2]; [9]
  Kill rate/% after 6 days, +RME + AS (each 1000 ppm): 55%
[2]; active substance 4 ppm
  Kill rate/% after 6 days, a.i.: 5%
[3]; [7]
  Kill rate/% after 6 days, +AS (1000 ppm): 25%
[3]; active substance 4 ppm
  Kill rate/% after 6 days, a.i.: 5%
[4]
  Kill rate/% after 6 days, +AS (1000 ppm): 70%
  Kill rate/% after 6 days, a.i.: 40%

## C=CCN(C)S(=O)(=O)c1cccc(OC)c1C#N [Example 225]
[1]; [7]
  Kill rate/% after 6 days, +AS (1000 ppm): 0%
[1]; [8]
  Kill rate/% after 6 days, +RME (1000 ppm): 5%
[1]; [9]
  Kill rate/% after 6 days, +RME + AS (each 1000 ppm): 35%
[1]; active substance 4 ppm
  Kill rate/% after 6 days, a.i.: 0%
[3]; [10]
  Kill rate/% after 6 days, +AS (1000 ppm): 75%
[3]; active substance 20 ppm
  Kill rate/% after 6 days, a.i.: 35%
[4]
  Kill rate/% after 6 days, +AS (1000 ppm): 80%
  Kill rate/% after 6 days, a.i.: 20%

## COc1cccc2c1C(N)=NS2(=O)=O [Example 45-B]
[5]; [7]
  Kill rate/% after 6 days, +AS (1000 ppm): 60%
[5]; active substance 4 ppm
  Kill rate/% after 6 days, a.i.: 35%

## COc1cccc(S(=O)(=O)NCc2ccccc2)c1C#N [Example 40]
[1]
  Kill rate/% after 7 days, +AS (1000 ppm): 0%
  Kill rate/% after 7 days, +RME (1000 ppm): 40%
  Kill rate/% after 7 days, +RME + AS (each 1000 ppm): 50%
  Kill rate/% after 7 days, a.i.: 0%

## COc1cccc(S(=O)(=O)NC2CC2)c1C#N [Example 83]
[1]
  Kill rate/% after 7 days, +AS (1000 ppm): 0%
  Kill rate/% after 7 days, +RME (1000 ppm): 10%
  Kill rate/% after 7 days, +RME + AS (each 1000 ppm): 75%
  Kill rate/% after 7 days, a.i.: 0%
[2]
  Kill rate/% after 7 days, +AS (1000 ppm): 55%
  Kill rate/% after 7 days, +RME (1000 ppm): 30%
  Kill rate/% after 7 days, +RME + AS (each 1000 ppm): 85%
  Kill rate/% after 7 days, a.i.: 10%

## C#CCN1C(=N)c2c(OC)cccc2S1(=O)=O [Example 42-A]
[1]; [10]
  Kill rate/% after 6 days, +AS (1000 ppm): 45%
[1]; [11]
  Kill rate/% after 6 days, +RME (1000 ppm): 90%
[1]; [12]
  Kill rate/% after 6 days, +RME + AS (each 1000 ppm): 98%
[1]; active substance 20 ppm
  Kill rate/% after 6 days, a.i.: 0%
[6]; [13]
  Kill rate/% after 6 days, +AS (1000 ppm): 30%
[6]; [14]
  Kill rate/% after 6 days, +RME (1000 ppm): 45%
[6]; [15]
  Kill rate/% after 6 days, +RME + AS (each 1000 ppm): 80%
[6]; active substance 0.8 ppm
  Kill rate/% after 6 days, a.i.: 50%
[6]; [7]
  Kill rate/% after 6 days, +AS (1000 ppm): 50%
[6]; [8]
  Kill rate/% after 6 days, +RME (1000 ppm): 75%
[6]; [9]
  Kill rate/% after 6 days, +RME + AS (each 1000 ppm): 95%
[6]; active substance 4 ppm
  Kill rate/% after 6 days, a.i.: 70%
[3]; [7]
  Kill rate/% after 6 days, +AS (1000 ppm): 55%
[3]; active substance 4 ppm
  Kill rate/% after 6 days, a.i.: 15%
[3]; [10]
  Kill rate/% after 6 days, +AS (1000 ppm): 98%
[3]; active substance 20 ppm
  Kill rate/% after 6 days, a.i.: 30%
[5]; [10]
  Kill rate/% after 6 days, +AS (1000 ppm): 45%
[5]; active substance 20 ppm
  Kill rate/% after 6 days, a.i.: 0%

## N#Cc1ccccc1S(N)(=O)=O [Example 226]
[1]; [10]
  Kill rate/% after 6 days, +AS (1000 ppm): 10%
[1]; [11]
  Kill rate/% after 6 days, +RME (1000 ppm): 25%
[1]; [12]
  Kill rate/% after 6 days, +RME + AS (each 1000 ppm): 50%
[1]; active substance 20 ppm
  Kill rate/% after 6 days, a.i.: 10%
[2]; [13]
  Kill rate/% after 6 days, +AS (1000 ppm): 0%
[2]; [14]
  Kill rate/% after 6 days, +RME (1000 ppm): 20%
[2]; [15]
  Kill rate/% after 6 days, +RME + AS (each 1000 ppm): 35%
[2]; active substance 0.8 ppm
  Kill rate/% after 6 days, a.i.: 0%
[2]; [7]
  Kill rate/% after 6 days, +AS (1000 ppm): 20%
[2]; [8]
  Kill rate/% after 6 days, +RME (1000 ppm): 35%
[2]; [9]
  Kill rate/% after 6 days, +RME + AS (each 1000 ppm): 55%
[2]; active substance 4 ppm
  Kill rate/% after 6 days, a.i.: 20%
[6]; [10]
  Kill rate/% after 6 days, +AS (1000 ppm): 70%
[6]; [11]
  Kill rate/% after 6 days, +RME (1000 ppm): 60%
[6]; [12]
  Kill rate/% after 6 days, +RME + AS (each 1000 ppm): 90%
[6]; active substance 20 ppm
  Kill rate/% after 6 days, a.i.: 50%

## C#CCNS(=O)(=O)c1cccc(OC)c1C#N [Example 42]
[1]; [10]
  Kill rate/% after 6 days, +AS (1000 ppm): 20%
[1]; [11]
  Kill rate/% after 6 days, +RME (1000 ppm): 25%
[1]; [12]
  Kill rate/% after 6 days, +RME + AS (each 1000 ppm): 70%
[1]; active substance 20 ppm
  Kill rate/% after 6 days, a.i.: 5%
[1]; active substance 100 ppm + ammonium sulfate 1000 ppm
  Kill rate/% after 6 days, +AS (1000 ppm): 80%
[1]; active substance 100 ppm + rape oil methyl ester 1000 ppm
  Kill rate/% after 6 days, +RME (1000 ppm): 99%
[1]; active substance 100 ppm + rape oil methyl ester and ammonium sulfate
  Kill rate/% after 6 days, +RME + AS (each 1000 ppm): 100%
[1]; active substance 100 ppm
  Kill rate/% after 6 days, a.i.: 75%
[5]; [10]
  Kill rate/% after 6 days, +AS (1000 ppm): 20%
[5]; active substance 20 ppm
  Kill rate/% after 6 days, a.i.: 5%

## COc1cccc(S(=O)(=O)NC(C)C)c1C#N [Example 41]
[2]
  Kill rate/% after 7 days, +AS (1000 ppm): 80%
  Kill rate/% after 7 days, +RME (1000 ppm): 10%
  Kill rate/% after 7 days, +RME + AS (each 1000 ppm): 93%
  Kill rate/% after 7 days, a.i.: 50%

## COc1cccc(S(=O)(=O)N(C)C)c1C#N [Example 215]
[1]
  Kill rate/% after 7 days, +AS (1000 ppm): 20%
  Kill rate/% after 7 days, +RME (1000 ppm): 40%
  Kill rate/% after 7 days, +RME + AS (each 1000 ppm): 75%
  Kill rate/% after 7 days, a.i.: 0%
